From patent US9849132B2, “Products and pharmaceutical compositions” (Intra-Cellular Therapies, Inc., priority 2014, dated 2017)

Target: PDE1 (3′,5′-cyclic-nucleotide-specific bovine brain phosphodiesterase)
Test: Measurement of PDE1 inhibition in vitro using IMAP phosphodiesterase assay kit
Type: biochemical
Conditions: IMAP fluorescence polarization, FL-GMP substrate, bovine brain phosphodiesterase with calmodulin
Description: Phosphodiesterase 1B (PDE1B) is a calcium/calmodulin dependent phosphodiesterase enzyme that converts cyclic guanosine monophosphate (cGMP) to 5′-guanosine monophosphate (5′-GMP). PDE1B can also convert a modified cGMP substrate, such as the fluorescent molecule cGMP-fluorescein, to the corresponding GMP-fluorescein. The generation of GMP-fluorescein from cGMP-fluorescein can be quantitated, using, for example, the IMAP (Molecular Devices, Sunnyvale, Calif.) immobilized-metal affinity particle reagent.
Briefly, the IMAP reagent binds with high affinity to the free 5′-phosphate that is found in GMP-fluorescein and not in cGMP-fluorescein. The resulting GMP-fluorescein—IMAP complex is large relative to cGMP-fluorescein. Small fluorophores that are bound up in a large, slowly tumbling, complex can be distinguished from unbound fluorophores, because the photons emitted as they fluoresce retain the same polarity as the photons used to excite the fluorescence.
In the phosphodiesterase assay, cGMP-fluorescein, which cannot be bound to IMAP, and therefore retains little fluorescence polarization, is converted to GMP-fluorescein, which, when bound to IMAP, yields a large increase in fluorescence polarization (Δmp). Inhibition of phosphodiesterase, therefore, is detected as a decrease in Δmp. […]
A decrease in GMP concentration, measured as decreased Δmp, is indicative of inhibition of PDE activity. […]

## CN1C(=O)c2c(nn(Cc3ccc(-c4ccccn4)cc3)c2Nc2ccccc2)N2C1=N[C@@H]1CCC[C@@H]12 [Example 1, (6aR,9aS)-5,6a,7,8,9,9a-hexahydro-5-methyl-3-(phenylamino)-2-((4-Pyridin-2yl)-benzyl)-cyclopent[4,5]imidazo[1,2-a]pyrazolo[4,3-e]pyrimidin-4(2H)-one]
  IC50: 0.105 nM
